Source: patent publication US8153408B2, “Biocatalytic racemisation of alpha-hydroxyketones” (BASF SE, priority 2006, dated 2012)

Tests used:
[1] = tested on: rehydrated lyophilised (resting) cells of Lactobacillus paracasei subsp. paracasei DSM 20207; assay: Biocatalytic racemisation of acyloins 1-4 by whole resting cells; type: cell-based; settings: L. paracasei DSM 20207 cells; for Relative Rate (initial rate of racemisation relative to (R)-1 arbitrarily set as standard (100%)): aqueous BIS-TRIS buffer pH 6, 42° C.; for racemisation rate (in words): aqueous buffer at pH 6; for Racemization (extent of racemisation under standard conditions after 24 h): pH 6, 42° C.
Procedure: (§1) After 3 days, the cells were harvested by centrifugation (18000*g), lyophilised and stored at +4° C. For the biocatalytic racemisation, 50 mg of whole lyophilised cells were rehydrated in 0.5 ml aqueous BIS-TRIS buffer (50 mM, 10^−2 M MgCl2, pH 6) for 1 h at 42° C. with shaking at 150 rpm. Substrates 1-4 (5 mg) were added followed by shaking of the reaction mixture with 150 rpm at 42° C. for 24 h, 48 h and 72 h. Then the reaction mixture was extracted with ethyl acetate and the organic phase was dried over sodium sulfate. The organic phase was evaporated under reduced pressure and the residue was dissolved in HPLC-eluent. The determination the enantiomeric excess of the substrate was carried out by HPLC on a chiral stationary phase. Analysis of the enantiomeric composition versus time gave the initial rates of racemisation, which are represented as % with respect to substrate (R)-1 sert as standard (100%).
(§2) The biocatalytic racemisation of acyloins 1-4 was performed using rehydrated lyophilised (resting) cells of Lactobacillus paracasei subsp. paracasei DSM 20207 in aqueous buffer at pH 6, the racemisation of acyloins 5-6 by using rehydrated lyophilised (resting) cells of Lactobacillus halotoleransi DSM 20190.

[2] = tested on: rehydrated lyophilised (resting) cells of Lactobacillus halotoleransi DSM 20190; assay: Biocatalytic racemisation of acyloins 5-6 by whole resting cells; type: cell-based, Lactobacillus halotolerans DSM 20190; settings: L. halotolerans DSM 20190 cells; for Relative Rate (initial rate of racemisation relative to (R)-1 arbitrarily set as standard (100%)): aqueous BIS-TRIS buffer pH 6, 42° C.; for Racemization (extent of racemisation under standard conditions after 24 h): pH 6, 42° C.
Procedure: as §1, §2

Row | SMILES | Relative Rate (initial rate of racemisation relative to (R)-1 arbitrarily set as standard (100%)) [1] [%] | racemisation rate (in words) [1] | Racemization (extent of racemisation under standard conditions after 24 h) [1] [%] | racemisation (in words) [2] | Relative Rate (initial rate of racemisation relative to (R)-1 arbitrarily set as standard (100%)) [2] [%] | Racemization (extent of racemisation under standard conditions after 24 h) [2] [%]
1 | CC(=O)[C@@H](C)O [(R)-1, acetoin] | 100 | fast racemisation rate | 86 |  |  | 
2 | CC(=O)[C@H](O)c1ccccc1 [(R)-3, (R)-phenylacetylcarbinol] | 67 | High racemisation rates | 50 |  |  | 
3 | C[C@@H](O)C(=O)c1ccccc1 [(R)-4, (R)-2-hydroxypropiophenone] | 65 | slightly reduced | 46 |  |  | 
4 | O=C1c2ccccc2CC[C@H]1O [(R)-5, (R)-2-Hydroxy-1,2,3,4-tetranaphtalin-1-one] |  |  |  | high racemisation | 77 | 92
5 | O=C1c2ccccc2C[C@H]1O [(R)-6, (R)-2-Hydroxyindane-1-one] |  |  |  | high racemisation | 58 | 84
